Experimental data taken from patent publication US11058119B2, “Biologicals and their use in plants” (priority 2015, dated 2021).

Key:
[1] = system: Metarhizium robertsii (15013-1); assay: Determination of fungicide sensitivity, conidia growth in liquid media; format: cell-based; conditions: 5,000 conidia in 0.5 ml YMA, 26° C., visual observation
Procedure: (§1) Conidia of Metarhizium robertsii (15013-1) and Metarhizium robertsii (23013-3) were produced by growing the fungus on potato dextrose agar plates for 1-2 weeks at 23° C. under continuous illumination from fluorescent lights. Conidia were harvested from the plate in water containing Tween-20 (0.01%) and counted using a hemacytometer. Fungicide sensitivity was determined by mixing 5,000 conidia in 0.5 ml of YMA (2 g yeast extract, 4 g malt extract per liter) liquid media containing varying concentrations of commercially available fungicides active against filamentous fungi in a 24 well plate. Plates were incubated for […] at 26° C. and then growth was assessed by visual observation with a stereomicroscope.

[2] = system: Metarhizium robertsii (23013-3); assay: as above; format: cell-based; conditions: 5,000 conidia in 0.5 ml YMA, 26° C., visual observation
Procedure: as §1

SMILES | growth of 15013-1 conidia compared to a control without any fungicide ([1]; Fungicide Concentration 3 uM) | growth of 15013-1 conidia compared to a control without any fungicide ([1]; Fungicide Concentration 10 uM) | growth of 15013-1 conidia compared to a control without any fungicide ([1]; Fungicide Concentration 30 uM) | growth of 23013-3 conidia compared to a control without any fungicide ([2]; Fungicide Concentration 3 uM) | growth of 23013-3 conidia compared to a control without any fungicide ([2]; Fungicide Concentration 10 uM) | growth of 23013-3 conidia compared to a control without any fungicide ([2]; Fungicide Concentration 30 uM)
c1ccc2[nH]c(-c3cscn3)nc2c1 [Thiabendazole] | ++++ (growth of about 50% or more compared to a control without any fungicide) | ++++ (growth of about 50% or more compared to a control without any fungicide) | ++++ (growth of about 50% or more compared to a control without any fungicide) | +++ (growth of about 30% or about 70% inhibition compared to a control without any fungicide) | ++++ (growth of about 50% or more compared to a control without any fungicide) | ++++ (growth of about 50% or more compared to a control without any fungicide)
CO/C=C(/C(=O)OC)c1ccccc1Oc1cc(Oc2ccccc2C#N)ncn1 [Azoxystrobin] | ++ (growth of about 20% or about 80% inhibition compared to a control without any fungicide) | + (growth of about 10% or about 90% inhibition compared to a control without any fungicide) | − | + (growth of about 10% or about 90% inhibition compared to a control without any fungicide) | − | −
N#Cc1c[nH]cc1-c1cccc2c1OC(F)(F)O2 [Fludioxonil] | + (growth of about 10% or about 90% inhibition compared to a control without any fungicide) | + (growth of about 10% or about 90% inhibition compared to a control without any fungicide) | + (growth of about 10% or about 90% inhibition compared to a control without any fungicide) | + (growth of about 10% or about 90% inhibition compared to a control without any fungicide) | + (growth of about 10% or about 90% inhibition compared to a control without any fungicide) | + (growth of about 10% or about 90% inhibition compared to a control without any fungicide)
